Assay results from ChEMBL document CHEMBL1201862, “PubChem BioAssay data set” (2004).
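In this assay, cells in 96-well plates receive the compound at five concentrations for 48 hours. Endpoints are linearly interpolated between the surrounding concentrations. GI50 = concentration required for 50% inhibition of growth.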 Activity calls are given as the source filed them. Cut-off read from the data, not from the text of the source: active = GI50 up to about 1.1 µM and inactive = higher.

Tests used:
Experiment in all cases: NCI tumour cell line growth inhibition, 48 h
[1] = test system: NCI/ADR-RES
[2] = test system: Malme-3M
[3] = test system: MCF7
[4] = test system: OVCAR-4
[5] = test system: SF-295
[6] = test system: COLO 205
[7] = test system: UACC-257
[8] = test system: HCC 2998
[9] = test system: HCT-116
[10] = test system: T47D
[11] = test system: KM12
[12] = test system: DU-145
[13] = test system: UACC-62
[14] = test system: HT-29
[15] = test system: SK-MEL-5
[16] = test system: NCI-H460
[17] = test system: PC-3
[18] = test system: HCT-15
[19] = test system: MOLT-4
[20] = test system: HL-60

| Structure (SMILES) | GI50 [1] | GI50 [2] | GI50 [3] | GI50 [4] | GI50 [5] | GI50 [6] | GI50 [7] | GI50 [8] | GI50 [9] | GI50 [10] | GI50 [11] | GI50 [12] | GI50 [13] | GI50 [14] | GI50 [15] | GI50 [16] | GI50 [17] | GI50 [18] [µM] | GI50 [19] | GI50 [20] |
| --- | --- | --- | --- | --- | --- | --- | --- | --- | --- | --- | --- | --- | --- | --- | --- | --- | --- | --- | --- | --- |
| CN1CCN(C2=NCCO2)CC1 | > 100 µM (inactive) | > 100 µM (inactive) | > 100 µM (inactive) | > 100 µM (inactive) | > 100 µM (inactive) | > 100 µM (inactive) | > 100 µM (inactive) | > 100 µM (inactive) | > 100 µM (inactive) | > 100 µM (inactive) | > 100 µM (inactive) | > 100 µM (inactive) | > 100 µM (inactive) | > 100 µM (inactive) | > 100 µM (inactive) | > 100 µM (inactive) | > 100 µM (inactive) | > 100 | > 100 µM (inactive) | > 100 µM (inactive) |
| Cc1ccc(S(=O)(=O)NNC(=O)c2cc(C)ccc2NC(=O)C23CC4CC(CC(C4)C2)C3)cc1 | 38.5 µM (inactive) | 23.5 µM (inactive) | 37.2 µM (inactive) | 27.7 µM (inactive) | 45.5 µM (inactive) | > 100 µM (inactive) | 25.4 µM (inactive) | 30.1 µM (inactive) | 31.2 µM (inactive) | 22.2 µM (inactive) | 75.3 µM (inactive) | 29.6 µM (inactive) | 39.7 µM (inactive) | > 100 µM (inactive) | 61.5 µM (inactive) | 43.8 µM (inactive) | 34.5 µM (inactive) | 22.7 | > 100 µM (inactive) | 66.8 µM (inactive) |
| Cc1c2cc[n+]([O-])cc2c(C)c2c1[nH]c1ccccc12 | 20.8 µM (inactive) | 8.95 µM (inactive) | 1.21 µM (inactive) | 9.95 µM (inactive) | 4.58 µM (inactive) | 2.15 µM (inactive) | 17.7 µM (inactive) | 12.5 µM (inactive) | 1.39 µM (inactive) | 2.14 µM (inactive) | 9.75 µM (inactive) | 8.73 µM (inactive) | 7.14 µM (inactive) | 3.57 µM (inactive) | 6.85 µM (inactive) | 2.45 µM (inactive) | 5.04 µM (inactive) | 5.22 | 0.998 µM (active) | 7.8 µM (inactive) |
| O=[N+]([O-])c1cc(Br)cc2cc(Cl)cnc12 | > 100 µM (inactive) | > 100 µM (inactive) | 35.5 µM (inactive) | > 100 µM (inactive) | 70.6 µM (inactive) | > 100 µM (inactive) | > 100 µM (inactive) | > 100 µM (inactive) | > 100 µM (inactive) | 39.8 µM (inactive) | > 100 µM (inactive) | > 100 µM (inactive) | 61.4 µM (inactive) | > 100 µM (inactive) | 81.8 µM (inactive) | > 100 µM (inactive) | > 100 µM (inactive) | > 100 | > 100 µM (inactive) | 57.8 µM (inactive) |
| N/C(=N\Nc1ccc(C(=O)O)cc1)c1cnccn1 | > 100 µM (inactive) | 37.2 µM (inactive) | > 100 µM (inactive) | > 100 µM (inactive) | > 100 µM (inactive) | > 100 µM (inactive) | > 100 µM (inactive) | > 100 µM (inactive) | > 100 µM (inactive) | > 100 µM (inactive) | > 100 µM (inactive) | > 100 µM (inactive) | > 100 µM (inactive) | > 100 µM (inactive) | > 100 µM (inactive) | > 100 µM (inactive) | > 100 µM (inactive) | > 100 | > 100 µM (inactive) | < 0.01 µM (active) |
| C=C[C@H]1CN2CCc3c([nH]c4cc(O)ccc34)[C@@H]2C[C@@H]1C[C@H]1c2[nH]c3ccccc3c2CCN1C | 9.06 µM (inactive) | 13.8 µM (inactive) | 2.31 µM (inactive) | 7.03 µM (inactive) | 4.53 µM (inactive) | 1.77 µM (inactive) | 1.95 µM (inactive) | 1.76 µM (inactive) | 2.42 µM (inactive) | 15.6 µM (inactive) | 3.66 µM (inactive) | 15.6 µM (inactive) | 4.19 µM (inactive) | 2.48 µM (inactive) | 1.73 µM (inactive) | 2.07 µM (inactive) | 4.89 µM (inactive) | 2.54 | 3.57 µM (inactive) | 1.04 µM (active) |
| CCOC(=O)C1C(c2ccc(OC)cc2)c2c(nn(-c3ccccc3)c2O)CC1(O)OCC (stereo not given) | > 100 µM (inactive) | 75.5 µM (inactive) | 30.1 µM (inactive) | > 100 µM (inactive) | 1.92 µM (inactive) | 36.5 µM (inactive) | 44.6 µM (inactive) | > 100 µM (inactive) | 23.7 µM (inactive) | 12.8 µM (inactive) | 3.4 µM (inactive) | 44.6 µM (inactive) | 7.67 µM (inactive) | 27.4 µM (inactive) | 26.6 µM (inactive) | 6.75 µM (inactive) | 9.31 µM (inactive) | 77.4 | 2.45 µM (inactive) | 0.47 µM (active) |
| Nc1ccc2c(c1)nc1n2C(c2c(F)cccc2F)SC1 (stereo not given) | > 100 µM (inactive) | > 100 µM (inactive) | > 100 µM (inactive) | > 100 µM (inactive) | > 100 µM (inactive) | > 100 µM (inactive) | > 100 µM (inactive) | > 100 µM (inactive) | > 100 µM (inactive) | 76.4 µM (inactive) | > 100 µM (inactive) | > 100 µM (inactive) | > 100 µM (inactive) | > 100 µM (inactive) | 47.8 µM (inactive) | > 100 µM (inactive) | > 100 µM (inactive) | > 100 | 26.9 µM (inactive) | 48.5 µM (inactive) |
| COc1cc(C2c3[nH]c4ccccc4c3[C@@H](Nc3ccc(C#N)cc3)[C@H]3COC(=O)N23)cc(OC)c1O (stereo not given in full) | 9.98 µM (inactive) | 0.279 µM (active) | 0.16 µM (active) | 1.84 µM (inactive) | 0.164 µM (active) | 0.644 µM (active) | 0.548 µM (active) | 0.239 µM (active) | 0.233 µM (active) | 0.345 µM (active) | 0.243 µM (active) | 0.252 µM (active) | 0.114 µM (active) | 0.3 µM (active) | 0.132 µM (active) | 0.0288 µM (active) | 0.462 µM (active) | 1.07 | 0.0188 µM (active) | 0.0399 µM (active) |
| O=C1c2cccnc2-c2nccc3c2c1nc1ccc(Br)cc13 | 0.034 µM (active) | 0.102 µM (active) | < 0.0162 µM (active) | 0.061 µM (active) | 0.0401 µM (active) | 0.438 µM (active) | 0.0536 µM (active) | 0.164 µM (active) | < 0.0136 µM (active) | 0.0789 µM (active) | 0.0656 µM (active) | 0.0225 µM (active) | 0.0569 µM (active) | 0.282 µM (active) | 0.0247 µM (active) | 0.065 µM (active) | 0.0426 µM (active) | 0.045 | 0.184 µM (active) | 0.0184 µM (active) |
| COc1cccc2c1C(=O)c1c(O)c3c(c(O)c1C2=O)C[C@@](O)(C(=O)CO)C[C@@H]3OC1CC(N2CCOCC2C#N)C(O)C(C)O1 (stereo not given in full) | 5.36e-05 µM (active) | 0.0002 µM (active) | 0.0025 µM (active) | 2.18e-05 µM (active) | 1.82e-05 µM (active) | 0.000136 µM (active) | 5.97e-05 µM (active) | 5.37e-05 µM (active) | 2.71e-05 µM (active) | 0.000102 µM (active) | 2.55e-05 µM (active) | 4.15e-05 µM (active) | 9.98e-06 µM (active) | 2.07e-05 µM (active) | 3.72e-05 µM (active) | 8.17e-06 µM (active) | 0.000107 µM (active) | 4.51e-05 | 1.83e-05 µM (active) | 2.02e-05 µM (active) |
| CSc1ncc2c(C#N)c3ccccn3c(=O)c2n1 | > 100 µM (inactive) | > 100 µM (inactive) | > 100 µM (inactive) | > 100 µM (inactive) | > 100 µM (inactive) | > 100 µM (inactive) | > 100 µM (inactive) | > 100 µM (inactive) | 88.5 µM (inactive) | > 100 µM (inactive) | > 100 µM (inactive) | > 100 µM (inactive) | > 100 µM (inactive) | > 100 µM (inactive) | > 100 µM (inactive) | 57.3 µM (inactive) | > 100 µM (inactive) | > 100 | > 100 µM (inactive) | > 100 µM (inactive) |
